Experimental data reported in patent US11084823B2, “Substituted pyrrolo[2,1-f][1,2,4]triazines as kinase inhibitors” (Daewoong Pharmaceutical Co., Ltd., priority 2017, dated 2021).
pIC50: −log10 of the molar value.

How the values were obtained:
[1] = molecular target: Recombinant purified human JAK3 (Homo sapiens (Human), UniProt P52333); assay: JAK3 kinase inhibitory activity, ADP-Glo kinase assay kit (Promega V9441); type: biochemical; settings: ATP 5 uM, 4 ng JAK3 per reaction, 1 hour at 30° C., chemiluminescence
Recombinant purified human JAK3, sequence (P52333 whole entry): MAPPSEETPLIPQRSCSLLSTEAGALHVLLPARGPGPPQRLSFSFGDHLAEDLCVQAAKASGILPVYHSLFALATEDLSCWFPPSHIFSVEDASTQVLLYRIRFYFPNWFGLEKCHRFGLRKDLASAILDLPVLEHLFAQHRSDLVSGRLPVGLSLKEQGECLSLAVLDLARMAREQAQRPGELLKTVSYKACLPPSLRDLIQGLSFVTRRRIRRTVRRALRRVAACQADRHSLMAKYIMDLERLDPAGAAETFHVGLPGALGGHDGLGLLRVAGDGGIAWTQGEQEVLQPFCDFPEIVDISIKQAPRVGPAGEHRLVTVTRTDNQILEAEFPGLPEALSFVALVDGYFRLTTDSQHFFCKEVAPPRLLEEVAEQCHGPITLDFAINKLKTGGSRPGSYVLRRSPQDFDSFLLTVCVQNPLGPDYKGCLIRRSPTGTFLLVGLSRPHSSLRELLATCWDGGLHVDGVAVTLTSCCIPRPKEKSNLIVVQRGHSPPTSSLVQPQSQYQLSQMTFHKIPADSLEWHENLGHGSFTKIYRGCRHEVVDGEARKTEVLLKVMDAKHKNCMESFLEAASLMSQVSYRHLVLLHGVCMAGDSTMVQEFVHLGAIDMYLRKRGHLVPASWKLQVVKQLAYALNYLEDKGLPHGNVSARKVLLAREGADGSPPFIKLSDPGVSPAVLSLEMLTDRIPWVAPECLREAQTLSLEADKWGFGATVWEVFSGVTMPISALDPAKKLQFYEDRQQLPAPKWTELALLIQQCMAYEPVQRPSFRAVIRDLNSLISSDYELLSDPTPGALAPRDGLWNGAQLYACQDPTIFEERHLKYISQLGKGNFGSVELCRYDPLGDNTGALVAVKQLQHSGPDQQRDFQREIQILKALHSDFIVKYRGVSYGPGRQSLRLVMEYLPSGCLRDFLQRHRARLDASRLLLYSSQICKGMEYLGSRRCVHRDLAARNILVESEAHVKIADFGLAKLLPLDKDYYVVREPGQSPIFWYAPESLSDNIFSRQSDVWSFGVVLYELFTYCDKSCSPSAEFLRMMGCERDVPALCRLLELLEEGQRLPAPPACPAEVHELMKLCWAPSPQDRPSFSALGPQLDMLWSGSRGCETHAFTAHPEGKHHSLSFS
Protocol: (§1) JAK3 and BTK kinase inhibitory activities were measured for the compounds prepared in the above Examples through in vitro analysis on the ADP Glow (Glo) platform.
(§2) Specifically, the inhibitory activities of JAK3 and BTK kinase were measured using a JAK3 kinase assay kit (Promega, V9441) and a BTK kinase assay kit (Promega, V9071) which were purchased from Promega. Recombinant purified human JAK3 and BTK were diluted with 1× kinase reaction buffer (JAK3: 40 mM Tris-Cl, pH 7.5, 20 mM MgCl2, 0.1 mg/mL BSA and 50 uM DTT/BTK: 40 mM Tris-Cl, pH 7.5, 20 mM MgCl2, 0.1 mg/mL BSA, 2 mM MnCl2 and 50 uM DTT) and added to a 96 well plate (JAK3: final concentration of 4 ng per reaction/BTK: final concentration of 8 ng per reaction). […] After incubation (30° C.) for 1 hour, equivalent volume (25 uL per reaction) of ADP Glo was added and incubated (30° C.) for 40 minutes at room temperature. Then, a kinase detection reagent (50 uL per reaction) was added and incubated (30° C.) for 30 minutes at room temperature. The kinase activity was measured by chemiluminescence according to the instructions of ADP Glo kinase assay kit, and the inhibitory activity of the compounds according to the present invention was calculated.

[2] = molecular target: Recombinant purified human BTK (Homo sapiens (Human), UniProt Q06187); assay: BTK kinase inhibitory activity, ADP-Glo kinase assay kit (Promega V9071); type: biochemical; settings: ATP 10 uM, 8 ng BTK per reaction, 1 hour at 30° C., chemiluminescence
Recombinant purified human BTK, sequence (Q06187 whole entry): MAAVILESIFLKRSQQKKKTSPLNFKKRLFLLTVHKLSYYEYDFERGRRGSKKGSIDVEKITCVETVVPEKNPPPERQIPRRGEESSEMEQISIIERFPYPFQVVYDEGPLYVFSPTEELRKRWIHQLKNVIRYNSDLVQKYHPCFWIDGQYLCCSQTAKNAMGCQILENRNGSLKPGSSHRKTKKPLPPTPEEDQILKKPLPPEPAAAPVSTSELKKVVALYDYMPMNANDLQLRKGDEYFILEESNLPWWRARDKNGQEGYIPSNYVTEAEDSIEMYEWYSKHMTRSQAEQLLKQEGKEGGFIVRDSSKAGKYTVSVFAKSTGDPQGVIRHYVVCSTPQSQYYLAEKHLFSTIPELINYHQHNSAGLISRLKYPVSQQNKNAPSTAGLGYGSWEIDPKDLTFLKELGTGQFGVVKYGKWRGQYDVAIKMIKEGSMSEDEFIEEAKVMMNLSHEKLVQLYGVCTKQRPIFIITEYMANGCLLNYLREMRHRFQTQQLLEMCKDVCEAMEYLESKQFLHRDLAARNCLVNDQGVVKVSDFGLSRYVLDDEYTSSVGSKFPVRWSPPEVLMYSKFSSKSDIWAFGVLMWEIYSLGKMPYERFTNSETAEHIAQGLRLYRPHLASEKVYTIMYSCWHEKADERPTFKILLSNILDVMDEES
Protocol: as §1, §2

| SMILES | pIC50 [1] | pIC50 [2] |
| --- | --- | --- |
| C=CC(=O)Nc1ccc(F)c(Oc2nc(Nc3cnn(C4CC4)c3)nn3cccc23)c1 [Example 1, N-(3-((2-((1-cyclopropyl-1H-pyrazol-4-yl)amino)pyrrolo[2,1-f][1,2,4]triazin-4-yl)oxy)-4-fluorophenyl)acrylamide] | 8.96 | 7.87 |
| C=CC(=O)Nc1cccc(Oc2nc(Nc3ccc(N4CCN(C)CC4)cc3)nn3cccc23)c1 [Example 2, N-(3-((2-((4-(4-methylpiperazin-1-yl)phenyl)amino)pyrrolo[2,1-f][1,2,4]triazin-4-yl)oxy)phenyl)acrylamide] | 8.55 | 7.64 |
| C=CC(=O)Nc1cccc(Oc2nc(Nc3cnn(C)c3)nn3cccc23)c1 [Example 3, N-(3-((2-((1-methyl-1H-pyrazol-4-yl)amino)pyrrolo[2,1-f][1,2,4]triazin-4-yl)oxy)phenyl)acrylamide] | 9.22 | 7.90 |
| C=CC(=O)Nc1cccc(Oc2nc(Nc3cnn(CC(F)F)c3)nn3cccc23)c1 [Example 4, N-(3-((2-((1-(2,2-difluoroethyl)-1H-pyrazol-4-yl)amino)pyrrolo[2,1-f][1,2,4]triazin-4-yl)oxy)phenyl)acrylamide] | 9.15 | 7.87 |
| C=CC(=O)Nc1cccc(Oc2nc(Nc3cc(C)ns3)nn3cccc23)c1 [Example 5, N-(3-((2-((3-methylisothiazol-5-yl)amino)pyrrolo[2,1-f][1,2,4]triazin-4-yl)oxy)phenyl)acrylamide] | 9.22 | 8.06 |
| C=CC(=O)Nc1cccc(Oc2nc(Nc3cnn(CC)c3)nn3cccc23)c1 [Example 6, N-(3-((2-((1-ethyl-1H-pyrazol-4-yl)amino)pyrrolo[2,1-f][1,2,4]triazin-4-yl)oxy)phenyl)acrylamide] | 9.30 | 8.00 |
| C=CC(=O)Nc1ccc(F)c(Oc2nc(Nc3cc(C)ns3)nn3cccc23)c1 [Example 7, N-(4-fluoro-3-((2-((3-methylisothiazol-5-yl)amino)pyrrolo[2,1-f][1,2,4]triazin-4-yl)oxy)phenyl)acrylamide] | 9.30 | 7.97 |
| C=CC(=O)Nc1ccc(F)c(Oc2nc(Nc3cnn(CC)c3)nn3cccc23)c1 [Example 8, N-(3-((2-((1-ethyl-1H-pyrazol-4-yl)amino)pyrrolo[2,1-f][1,2,4]triazin-4-yl)oxy)-4-fluorophenyl)acrylamide] | 9.22 | 8.11 |
| C=CC(=O)Nc1ccc(F)c(Oc2nc(Nc3ccn(C)c3)nn3cccc23)c1 [Example 9, N-(4-fluoro-3-((2-((1-methyl-1H-pyrrol-3-yl)amino)pyrrolo[2,1-f][1,2,4]triazin-4-yl)oxy)phenyl)acrylamide] | 7.77 | 6.61 |
| C=CC(=O)Nc1ccc(F)c(Oc2nc(Nc3cnn(CC(C)C)c3)nn3cccc23)c1 [Example 10, N-(4-fluoro-3-((2-((1-isobutyl-1H-pyrazol-4-yl)amino)pyrrolo[2,1-f][1,2,4]triazin-4-yl)oxy)phenyl)acrylamide] | 8.02 | 6.95 |
| C=CC(=O)Nc1cccc(Oc2nc(Nc3cnn(C4CC4)c3)nn3cccc23)c1 [Example 11, N-(3-((2-((1-cyclopropyl-1H-pyrazol-4-yl)amino)pyrrolo[2,1-f][1,2,4]triazin-4-yl)oxy)phenyl)acrylamide] | 7.99 | 6.97 |
| C=CC(=O)Nc1ccc(F)c(Oc2nc(Nc3ccc(N(C)C)cc3)nn3cccc23)c1 [Example 12, N-(3-((2-((4-(dimethylamino)phenyl)amino)pyrrolo[2,1-f][1,2,4]triazin-4-yl)oxy)-4-fluorophenyl)acrylamide] | 9.15 | 8.12 |
| C=CC(=O)Nc1ccc(F)c(Oc2nc(Nc3ccc(Oc4ccccc4)cc3)nn3cccc23)c1 [Example 13, N-(4-fluoro-3-((2-((4-phenoxyphenyl)amino)pyrrolo[2,1-f][1,2,4]triazin-4-yl)oxy)phenyl)acrylamide] | 7.38 | 6.21 |
| C=CC(=O)Nc1ccc(F)c(Oc2nc(Nc3ccc4ncsc4c3)nn3cccc23)c1 [Example 14, N-(3-((2-((benzo[d]thiazol-6-yl)amino)pyrrolo[2,1-f][1,2,4]triazin-4-yl)oxy)-4-fluorophenyl)acrylamide] | 8.01 | 7.36 |
| C=CC(=O)Nc1ccc(F)c(Oc2nc(Nc3cccnc3)nn3cccc23)c1 [Example 15, N-(4-fluoro-3-((2-((pyridin-3-yl)amino)pyrrolo[2,1-f][1,2,4]triazin-4-yl)oxy)phenyl)acrylamide] | 7.81 | 6.99 |
| C=CC(=O)Nc1cccc(Oc2nc(Nc3ccc(C(C)C)cc3)nn3cccc23)c1 [Example 16, N-(3-((2-((4-isopropylphenyl)amino)pyrrolo[2,1-f][1,2,4]triazin-4-yl)oxy)phenyl)acrylamide] | 7.70 | 6.91 |
| C=CC(=O)Nc1cccc(Oc2nc(Nc3ccc(OC)cc3)nn3cccc23)c1 [Example 17, N-(3-((2-((4-methoxyphenyl)amino)pyrrolo[2,1-f][1,2,4]triazin-4-yl)oxy)phenyl)acrylamide] | 8.23 | 7.16 |
| C=CC(=O)Nc1cccc(Oc2nc(Nc3ccc(C(=O)N4CCOCC4)cc3)nn3cccc23)c1 [Example 18, N-(3-((2-((4-(morpholine-4-carbonyl)phenyl)amino)pyrrolo[2,1-f][1,2,4]triazin-4-yl)oxy)phenyl)acrylamide] | 8.66 | 7.42 |
| C=CC(=O)Nc1cccc(Oc2nc(Nc3ccsc3)nn3cccc23)c1 [Example 19, N-(3-((2-((thiophen-3-yl)amino)pyrrolo[2,1-f][1,2,4]triazin-4-yl)oxy)phenyl)acrylamide] | 8.28 | 7.20 |
| C=CC(=O)Nc1cccc(Oc2nc(Nc3ccn(C)n3)nn3cccc23)c1 [Example 20, N-(3-((2-((1-methyl-1H-pyrazol-3-yl)amino)pyrrolo[2,1-f][1,2,4]triazin-4-yl)oxy)phenyl)acrylamide] | 7.24 | 6.19 |
| C=CC(=O)Nc1cccc(Oc2nc(Nc3ccc(CN(C)C)cc3)nn3cccc23)c1 [Example 21, N-(3-((2-((4-((dimethylamino)methyl)phenyl)amino)pyrrolo[2,1-f][1,2,4]triazin-4-yl)oxy)phenyl)acrylamide] | 7.93 | 6.98 |
| C=CC(=O)Nc1cccc(Oc2nc(Nc3ccc(N4CCOCC4)cc3)nn3cccc23)c1 [Example 22, N-(3-((2-((4-morpholinophenyl)amino)pyrrolo[2,1-f][1,2,4]triazin-4-yl)oxy)phenyl)acrylamide] | 8.28 | 7.45 |
| C=CC(=O)Nc1cccc(Oc2nc(Nc3ccc(N(C)C)cc3)nn3cccc23)c1 [Example 23, N-(3-((2-((4-(dimethylamino)phenyl)amino)pyrrolo[2,1-f][1,2,4]triazin-4-yl)oxy)phenyl)acrylamide] | 7.98 | 7.22 |
| C=CC(=O)Nc1cccc(Oc2nc(Nc3cc4n(n3)CCN(C)C4)nn3cccc23)c1 [Example 24, N-(3-((2-((5-methyl-4,5,6,7-tetrahydropyrazolo[1,5-a]pyrazin-2-yl)amino)pyrrolo[2,1-f][1,2,4]triazin-4-yl)oxy)phenyl)acrylamide] | 7.73 | 6.78 |
| C=CC(=O)Nc1ccc(F)c(Oc2nc(Nc3ccc(N4CCN(C)CC4)cc3)nn3cccc23)c1 [Example 25, N-(4-fluoro-3-((2-((4-(4-methylpiperazin-1-yl)phenyl)amino)pyrrolo[2,1-f][1,2,4]triazin-4-yl)oxy)phenyl)acrylamide] | 8.85 | 8.10 |
| C=CC(=O)Nc1ccc(F)c(Oc2nc(Nc3cnn(CC(F)F)c3)nn3cccc23)c1 [Example 26, N-(3-((2-((1-(2,2-difluoroethyl)-1H-pyrazol-4-yl)amino)pyrrolo[2,1-f][1,2,4]triazin-4-yl)oxy)-4-fluorophenyl)acrylamide] | 9.05 | 8.21 |
| C=CC(=O)Nc1ccc(F)c(Oc2nc(Nc3cnn(C)c3)nn3cccc23)c1 [Example 27, N-(4-fluoro-3-((2-((1-methyl-1H-pyrazol-4-yl)amino)pyrrolo[2,1-f][1,2,4]triazin-4-yl)oxy)phenyl)acrylamide] | 9.15 | 8.30 |
| C=CC(=O)Nc1ccc(F)c(Oc2nc(Nc3ccc(OC)cc3)nn3cccc23)c1 [Example 28, N-(4-fluoro-3-((2-((4-methoxyphenyl)amino)pyrrolo[2,1-f][1,2,4]triazin-4-yl)oxy)phenyl)acrylamide] | 8.04 | 7.28 |
| C=CC(=O)Nc1ccc(F)c(Oc2nc(Nc3ccc(C(=O)N4CCOCC4)cc3)nn3cccc23)c1 [Example 29, N-(4-fluoro-3-((2-((4-(morpholine-4-carbonyl)phenyl)amino)pyrrolo[2,1-f][1,2,4]triazin-4-yl)oxy)phenyl)acrylamide] | 8.70 | 7.64 |
| C=CC(=O)Nc1ccc(F)c(Oc2nc(Nc3ccsc3)nn3cccc23)c1 [Example 30, N-(4-fluoro-3-((2-((thiophen-3-yl)amino)pyrrolo[2,1-f][1,2,4]triazin-4-yl)oxy)phenyl)acrylamide] | 8.12 | 7.18 |
